In ChEMBL document CHEMBL1138184, “Synthesis and structure-activity relationship studies of 1,3-diarylprop-2-yn-1-ones: dual inhibitors of cyclooxygenases and lipoxygenases” (J Med Chem, 2006):

What was measured:
5-lipoxygenase = biological target: T1, 5-lipoxygenase (Solanum tuberosum, UniProt O49150); test: Inhibitory activity against potato 5LOX
T1 sequence (O49150 whole entry): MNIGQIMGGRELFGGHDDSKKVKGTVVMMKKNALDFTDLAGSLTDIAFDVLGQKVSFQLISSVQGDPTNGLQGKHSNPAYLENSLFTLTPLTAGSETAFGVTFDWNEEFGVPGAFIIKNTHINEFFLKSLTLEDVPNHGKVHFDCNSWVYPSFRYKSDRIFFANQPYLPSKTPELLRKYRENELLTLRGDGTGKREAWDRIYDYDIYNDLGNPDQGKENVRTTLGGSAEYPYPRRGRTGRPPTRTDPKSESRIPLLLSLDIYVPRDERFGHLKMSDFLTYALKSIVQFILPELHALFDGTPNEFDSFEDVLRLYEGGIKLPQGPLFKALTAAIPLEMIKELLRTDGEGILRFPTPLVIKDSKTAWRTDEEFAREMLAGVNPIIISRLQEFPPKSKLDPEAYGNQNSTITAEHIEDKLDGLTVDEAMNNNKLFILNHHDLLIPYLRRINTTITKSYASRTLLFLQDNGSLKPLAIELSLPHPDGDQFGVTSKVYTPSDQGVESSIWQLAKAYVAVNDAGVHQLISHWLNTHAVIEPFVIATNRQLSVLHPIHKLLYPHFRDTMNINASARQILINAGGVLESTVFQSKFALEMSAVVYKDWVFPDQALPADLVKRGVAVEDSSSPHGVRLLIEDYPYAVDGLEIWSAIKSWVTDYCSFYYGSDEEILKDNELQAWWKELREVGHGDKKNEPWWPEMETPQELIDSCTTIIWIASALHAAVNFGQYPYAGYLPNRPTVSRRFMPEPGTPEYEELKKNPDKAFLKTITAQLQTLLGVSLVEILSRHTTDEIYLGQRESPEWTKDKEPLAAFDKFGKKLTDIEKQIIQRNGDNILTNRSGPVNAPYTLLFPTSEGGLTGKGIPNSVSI

Rattus norvegicus [1] = test: Inhibitory activity against 4% NaCl-induced abdominal constriction in Sprague-Dawley rat after 60 min of 30 mg/kg, po; format: functional; conditions: Abdomen, 1 h
Rattus norvegicus [2] = test: Anti-inflammatory activity against carrageenan-induced edema in Sprague-Dawley rat paw after 3 hrs of 30 mg/kg, po; format: functional
Rattus norvegicus [3] = test: Inhibitory activity against 4% NaCl-induced abdominal constriction in Sprague-Dawley rat after 30 min of 30 mg/kg, po; format: functional; conditions: Abdomen, 0.5 h
[4] = biological target: T2, Seed linoleate 13S-lipoxygenase-1 (Glycine max, UniProt P08170)
T2 sequence (P08170 whole entry): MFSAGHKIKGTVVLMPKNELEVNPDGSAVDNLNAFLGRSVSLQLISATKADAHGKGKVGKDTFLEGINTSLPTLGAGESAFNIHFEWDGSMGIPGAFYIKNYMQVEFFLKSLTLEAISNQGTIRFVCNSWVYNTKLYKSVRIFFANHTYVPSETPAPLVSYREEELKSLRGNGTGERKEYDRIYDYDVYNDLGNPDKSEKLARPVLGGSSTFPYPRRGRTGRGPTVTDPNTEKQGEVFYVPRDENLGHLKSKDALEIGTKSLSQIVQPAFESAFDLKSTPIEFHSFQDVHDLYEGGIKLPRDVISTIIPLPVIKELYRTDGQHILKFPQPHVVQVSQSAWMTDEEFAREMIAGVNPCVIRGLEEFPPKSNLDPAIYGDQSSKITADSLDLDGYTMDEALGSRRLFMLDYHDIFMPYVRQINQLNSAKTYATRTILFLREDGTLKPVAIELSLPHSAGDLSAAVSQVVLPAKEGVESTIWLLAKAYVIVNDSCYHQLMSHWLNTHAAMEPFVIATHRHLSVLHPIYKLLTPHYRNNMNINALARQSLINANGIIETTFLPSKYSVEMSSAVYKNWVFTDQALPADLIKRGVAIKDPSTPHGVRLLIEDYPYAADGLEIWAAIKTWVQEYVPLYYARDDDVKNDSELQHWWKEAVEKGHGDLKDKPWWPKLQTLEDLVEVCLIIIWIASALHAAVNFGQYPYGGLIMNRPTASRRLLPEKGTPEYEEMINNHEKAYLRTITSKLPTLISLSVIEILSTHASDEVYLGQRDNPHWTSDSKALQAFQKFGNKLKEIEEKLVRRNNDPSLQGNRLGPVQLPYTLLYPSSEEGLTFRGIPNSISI
Description: Inhibitory activity against soybean 15LOX

[5] = biological target: T3, Prostaglandin G/H synthase 1 (Ovis aries, UniProt P05979); test: Inhibitory activity against ovine COX1
T3 sequence (P05979 whole entry): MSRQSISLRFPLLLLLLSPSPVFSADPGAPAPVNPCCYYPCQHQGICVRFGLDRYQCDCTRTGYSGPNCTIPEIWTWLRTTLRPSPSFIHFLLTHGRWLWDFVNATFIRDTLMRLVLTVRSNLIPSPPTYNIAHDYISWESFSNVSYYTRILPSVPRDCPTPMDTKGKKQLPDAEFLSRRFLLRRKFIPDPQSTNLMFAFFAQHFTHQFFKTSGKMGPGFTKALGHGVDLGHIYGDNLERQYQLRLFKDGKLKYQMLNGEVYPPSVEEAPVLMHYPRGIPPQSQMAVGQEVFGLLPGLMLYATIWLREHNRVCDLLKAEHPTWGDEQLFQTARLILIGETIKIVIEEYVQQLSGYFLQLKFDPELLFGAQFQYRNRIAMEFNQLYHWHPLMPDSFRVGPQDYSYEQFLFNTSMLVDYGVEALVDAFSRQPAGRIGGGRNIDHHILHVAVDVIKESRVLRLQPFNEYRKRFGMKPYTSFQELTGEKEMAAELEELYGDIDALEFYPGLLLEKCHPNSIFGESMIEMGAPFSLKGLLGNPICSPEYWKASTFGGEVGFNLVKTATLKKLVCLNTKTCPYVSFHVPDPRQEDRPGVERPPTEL

Row | Compound | IC50 (5-lipoxygenase) [µM] | inhibition in vivo at 30 mg/kg (Rattus norvegicus [1]) [%] | inhibition in vivo at 30 mg/kg (Rattus norvegicus [2]) [%] | inhibition in vivo at 30 mg/kg (Rattus norvegicus [3]) [%] | ED50 (Rattus norvegicus [2]) [mg/kg] | IC50 [4] [µM] | IC50 [5] [µM]
1 | CS(=O)(=O)c1ccc(C#CC(=O)c2ccc(C(F)(F)F)cc2)cc1 | > 10 | 66.2 | 16.2 | 38 | – | – | –
2 | CS(=O)(=O)c1ccc(C#CC(=O)c2ccc(O)cc2)cc1 | 0.3 | 56.6 | 37.4 | 52.4 | 51.3 | – | –
3 | COc1cccc(C(=O)C#Cc2ccc(S(C)(=O)=O)cc2)c1 | 9 | 54.7 | 24.2 | 72.6 | – | – | –
4 | COc1cc(C(=O)C#Cc2ccc(S(C)(=O)=O)cc2)cc(OC)c1OC | 7 | 46.2 | 35.7 | 60.2 | 113 | – | –
5 | Cc1ccc(C(=O)C#Cc2ccc(S(C)(=O)=O)cc2)cc1 | > 10 | – | – | – | – | – | –
6 | COc1ccc(C(=O)C#Cc2ccc(S(C)(=O)=O)cc2)cc1O | > 10 | – | – | – | – | – | –
7 | CS(=O)(=O)c1ccc(C#CC(=O)c2ccc(F)c(F)c2)cc1 | 0.4 | 46.1 | 6.8 | 50.8 | – | – | –
8 | COc1ccc(C(=O)C#Cc2ccc(S(C)(=O)=O)cc2)cc1OC | 1 | – | – | – | – | > 10 | 3.3
9 | CS(=O)(=O)c1ccc(C#CC(=O)c2ccc([N+](=O)[O-])cc2)cc1 | 6.2 | – | – | – | – | > 10 | 0.25
10 | CCCCc1ccc(C(=O)C#Cc2ccc(S(C)(=O)=O)cc2)cc1 | 4.5 | – | – | – | – | > 10 | > 100
11 | CS(=O)(=O)c1ccc(C#CC(=O)c2cccc3ccccc23)cc1 | > 10 | 40.3 | 8.8 | 56.4 | – | > 10 | > 100
12 | CS(=O)(=O)c1ccc(C#CC(=O)c2ccno2)cc1 | 1.5 | – | – | – | – | > 10 | 32.2
13 | CC(C)c1ccc(C(=O)C#Cc2ccc(S(C)(=O)=O)cc2)cc1 | – | 53.7 | 48.1 | 40.7 | 35 | 0.36 | 9.2
14 | COC(=O)c1ccc(C(=O)C#Cc2ccc(S(C)(=O)=O)cc2)cc1 | > 10 | 71.2 | 21.5 | 56.2 | – | 5 | > 100
15 | CS(=O)(=O)c1ccc(C#CC(=O)c2ccoc2)cc1 | 0.1 | 76.6 | 26.4 | 57.7 | – | > 10 | 1
16 | CS(=O)(=O)c1ccc(C#CC(=O)c2ccc(S(C)(=O)=O)cc2)cc1 | > 10 | – | – | – | – | > 10 | > 100
17 | COc1ccc(C(=O)C#Cc2ccc(S(C)(=O)=O)cc2)c2ccccc12 | > 10 | 36.7 | 24 | 56.7 | – | 0.3 | > 100
18 | CSc1ccc(C(=O)C#Cc2ccc(S(C)(=O)=O)cc2)cc1 | – | – | – | – | – | 0.36 | 9.2
19 | CCCc1ccc(C(=O)C#Cc2ccc(S(C)(=O)=O)cc2)cc1 | 3.2 | – | – | – | – | 3.2 | 3.2
20 | CS(=O)(=O)c1ccc(C#CC(=O)c2ccc(C#N)cc2)cc1 | – | 36.2 | 29.6 | 48.6 | 90 | – | –
21 | CS(=O)(=O)c1ccc(C#CC(=O)c2cccc(O)c2)cc1 | 0.3 | – | – | – | – | – | –
22 | COc1ccc(C(=O)C#Cc2ccc(S(C)(=O)=O)cc2)cc1 | > 10 | 38.6 | 30.2 | 42.7 | 60.1 | – | –
23 | COc1cc(C(=O)C#Cc2ccc(S(C)(=O)=O)cc2)ccc1O | > 10 | 45.8 | 26 | 15.4 | – | – | –
24 | CS(=O)(=O)c1ccc(C#CC(=O)c2cccc([N+](=O)[O-])c2)cc1 | > 10 | – | – | – | – | 3.5 | 2
25 | CS(=O)(=O)c1ccc(C#CC(=O)c2ccc(F)cc2)cc1 | > 10 | 72 | 26.3 | 83.8 | – | – | –
26 | CC(=O)Oc1ccccc1C(=O)O [ASPIRIN] | – | 46.4 | – | 29.7 | 129 | – | –
27 | O=C(O)/C=C/c1ccc(O)c(O)c1 [CAFFEIC ACID] | – | 58.3 | 8.2 | 47.2 | – | – | –
28 | CC(Cc1ccc(O)c(O)c1)C(C)Cc1ccc(O)c(O)c1 (stereo not given) [NORDIHYDROGUAIARETIC ACID] | – | 62.5 | 15.1 | 45.8 | 205 | – | –
